According to patent publication US11246961B2, “Engineered scaffolds for vascularized tissue repair” (The Regents of the University of California, priority 2016, dated 2022):
Entries after “also recorded” stand apart in the source; their conditions may differ.

Columns and labels:
THP-1 monocytes = experiment: flow cytometry ligand-cell binding, THP-1 monocytes; conditions: biotinylated ligand 1 μM
Protocol: (§1) FIG. 10 presents flow cytometry data from an assay of binding affinity of LXW7 and GRGD (SEQ ID NO: 1) to different cell types. Tests included EPCs/ECs from different sources, including HECFCs (A), HCAECs (B), HMVECs (C), and THP-1 monocytes (D), Platelets (E), as well as K562 cells engineered to highly express αvβ3 (αvβ3-K562, F), and αIIbβ3 (αIIbβ3-K562, G). Cells were incubated with the LXW7-bio, GRGD-bio (SEQ ID NO: 1), or D-Biotin peptide and subsequently incubated with streptavidin-phycoerythrin. Flow cytometry analysis was performed to determine the binding affinity of the ligands. Samples treated with D-biotin were used as negative controls.
(§2) LXW7-bio (1 μM) was incubated with 3×10^5 HECFCs, HCAECs, HMVECs, αvβ3-K562 and αIIbβ3-K562 cells and THP-1 monocytes and 1×10^8 platelets in binding buffer (HEPES containing 10% FBS) on ice for 30 minutes. The samples were washed three times with DPBS containing 1% FBS and incubated with 2 μg/ml of streptavidin-phycoerythrin on ice for 30 minutes and then washed with DPBS. Samples were analyzed on a BD Fortessa LSR Cell Analyzer and further data analysis and gating were performed using FlowJo software (Treestar, Inc.).

platelets [1] = experiment: platelets attachment assay on ligand treated culture surfaces; format: cell-based; conditions: 16 hours
Text: Ligands LXW7, LXY30, and LLP2A were synthesized as in U.S. Pat. No. 9,073,974. Biotinylated LXW7 (LXW7-bio) and biotinylated GRGD (GRGD-bio) (SEQ ID NO: 1) were synthesized using established solid phase peptide synthesis protocols (Xiao et al. (2010) Mol Cancer Therapeutics 9:2714). Peptide-bio was designed to have biotin attached to the side chain of Lys, with two hydrophilic linkers between peptide and Lys (biotin). To modify culture surface with ligands, target culture wells in a 24-well plate were coated with 500 μL of 20 μg/mL Avidin (Thermo Fisher Scientific), and incubated for 1 hour at 37° C. Avidin coated wells were rinsed three times with DPBS and were treated with 500 μL molar equivalents (2 μM) of D-biotin (Thermo Fisher Scientific), LXW7-bio, or GRGD-bio (SEQ ID NO: 1). After 1 hour, the wells were washed three times with DPBS and blocked with 1% bovine serum albumin (BSA; Thermo Fisher Scientific) for 1 hour. After the wells were rinsed three times with DPBS, for cell attachment assay, 5×10^4 HCAECs and THP-1 monocytes suspended in the respective maintenance medium were added to the wells and incubated for 10 minutes or 16 hours at 37° C., 5% CO2, respectively. […] Five images were randomly taken from each sample and quantification of images was performed using the Image J software (NIH).

HMVECs = experiment: on-bead whole cell binding assay, HMVECs; format: cell-based, human; conditions: 10 minutes, 30 minutes or 2 hours
Text: Human coronary artery endothelial cells (HCAECs) were purchased from ATCC. Human cardiac microvascular endothelial cells (HMVECs) were purchased from Lonza. THP-1 monocytes were obtained from Dr. Pamela Lein (University of California, Davis). The myeloid leukemia K562 cells that have been transfected with human integrin αvβ3 gene (αvβ3-K562 cells) were provided by Dr. Yoshikazu Takada and the K562 cells transfected with human integrin αIIbβ3 gene (αIIb3-K562 cells) were provided Dr. Jennifer Cochran (Stanford University)
HECFCs, HCAECs, HMVECs and THP-1 monocytes were cultured in their respective growth medium as described in Example 1. For cell bead-binding assay, 6×10^5 HECFCs, HCAECs, HMVECs or THP-1 monocytes in 2 mL of their respective culture medium were added to an ultra-low attachment 35-mm petri dish (Corning Incorporated) followed by resin beads (Lam et al. (1991) Nature 354:82). The dishes were incubated in a shaking incubator at 37° C., 5% CO2 for various time points at 40 rpm. For platelet bead-binding assay, the platelets isolated as described in Example 1 were added to an ultra-low attachment 35-mm petri dish and incubated with the resin beads in the shaking incubator as described for the cell-bead binding assy. Phase contrast images were taken at different time points using an Olympus IX81 microscope. […]

platelets [2] = experiment: flow cytometry ligand-cell binding, platelets; conditions: biotinylated ligand 1 μM
Protocol: as §1, §2

integrin αIIbβ3 = molecular target: T1, integrin αIIbβ3 (Homo sapiens, UniProt P05106+P08514); experiment: flow cytometry ligand-cell binding, αIIbβ3-K562 cells; conditions: K562 cells highly expressing αIIbβ3
T1 construct: expressed in transfected cells; host or cells: K562 myeloid leukemia cells (αIIbβ3-K562), provided by Dr. Jennifer Cochran (Stanford University)
Protocol: as §1
Human coronary artery endothelial cells (HCAECs) were purchased from ATCC. Human cardiac microvascular endothelial cells (HMVECs) were purchased from Lonza. THP-1 monocytes were obtained from Dr. Pamela Lein (University of California, Davis). […]
as §2, with “The samples were washed three times with DPBS containing 1% FBS and incubated with 2 μg/ml of streptavidin-phycoerythrin on ice for 30 minutes and then washed with DPBS.” left out

Substance: cGRGDdvc [LXW7]
- binding to THP-1 monocytes by flow cytometry (THP-1 monocytes): did not bind to THP-1 monocytes
- platelet adhesion on ligand treated surface (platelets [1]): limited platelet adhesion
- attachment of HMVECs to beads displaying LXW7 (HMVECs): efficiently supported attachment of EPCs/ECs from different sources; also recorded: efficiently supported EPC/EC attachment
- binding affinity with platelets by flow cytometry (platelets [2]): very low binding affinity with platelets
- binding to αIIbβ3-K562 cells by flow cytometry (integrin αIIbβ3): very low binding
